Test results taken from patent US4360511A, “Amines useful as brain imaging agents” (Medi-Physics, Inc., priority 1980, dated 1982).
Where two headings read alike, the source gives them in different places.

Experiment: Bioassay: distribution of I-123-labeled compounds in organs of rats after tail vein injection (percent dose/gram, brain/blood ratio)
Format: in vivo, Female Sprague-Dawley rats
Details: for Brain/Blood Ratio 5 min. / tissue uptake at 5 min: 5 minutes post-injection; for Brain/Blood Ratio 60 min. / tissue uptake at 1 h: 60 minutes post-injection; for tissue uptake at 5 min / tissue uptake at 1 h: rat, iv, 0.05 to 1.0 mCi, two rats
Procedure: Female Sprague-Dawley rats weighing approximately 150 g were anesthetized with sodium pentobarbital and were injected in a tail vein with from 0.05 to 1.0 mCi (in a volume of 0.2 to 0.5 ml) of the I-123-labeled compound. Two specimens were utilized for each test.
Two animals each were sacrificed at 5 minutes and 60 minutes post-injection, the tails discarded and the amount of activity in various organs determined. Each organ was counted at a standardized geometry with a sodium iodide crystal scintillation counter adjusted for the 159 keV emission of I-123. The organs were also weighed to one thousandth of a gram and the activity calculated as a percent of administered dose per gram of organ weight.
The ratio of brain-to-blood activity was calculated as a percent of administered dose per gram.

[1] = blood, read-out: Percent Dose/Gram Blood 5 min.
[2] = blood, read-out: Percent Dose/Gram Blood 60 min.
[3] = brain, read-out: Percent Dose/Gram Brain 5 min.
[4] = brain, read-out: Percent Dose/Gram Brain 60 min.
[5] = heart, read-out: Percent Dose/Gram Heart 5 min.
[6] = heart, read-out: Percent Dose/Gram Heart 60 min.

| Structure (SMILES) | Brain/Blood Ratio 5 min. | Brain/Blood Ratio 60 min. | tissue uptake at 5 min [1] [%ID/g] | tissue uptake at 1 h [2] [%ID/g] | tissue uptake at 5 min [3] [%ID/g] | tissue uptake at 1 h [4] [%ID/g] | tissue uptake at 5 min [5] [%ID/g] | tissue uptake at 1 h [6] [%ID/g] |
| --- | --- | --- | --- | --- | --- | --- | --- | --- |
| CC(Cc1ccccc1)Nc1ccccc1[123I] (racemic) [I--123-N--(o-iodophenyl)amphetamine (dl)] | 1.81 | 0.75 | 0.53 | 0.55 | 0.96 | 0.41 | 1.64 | 0.57 |
| CC(Cc1ccccc1)NCCc1ccccc1[123I] (racemic) [I--123-N--o-iodo-β-phenethylamphetamine (dl)] | 7.13 | 7.86 | 0.12 | 0.11 | 0.82 | 0.83 | 2.02 | 0.48 |
| CC(Cc1ccccc1)NCc1ccccc1[123I] (racemic) [I--123-N--o-iodobenzylamphetamine (dl)] | 3.93 | 1.89 | 0.27 | 0.19 | 1.06 | 0.36 | 0.72 | 0.37 |
| CCN(Cc1ccccc1I)Cc1ccccc1[123I] [I--123-N,N--di-o-iodobenzylethylamine] | 0.68 | 0.88 | 0.52 | 0.28 | 0.36 | 0.25 | 2.11 | 0.5 |
| [123I]c1ccccc1CCN(CCc1ccccc1)CCc1ccccc1 [I--123-N,N--di-β-phenethyl-o-iodo-β-phenethylamine] | 0.24 | 0.17 | 0.83 | 0.65 | 0.2 | 0.11 | 1.18 | 0.62 |
| [123I]c1ccccc1CN(CCc1ccccc1)CCc1ccccc1 [I--123-N,N--di-β-phenethyl-o-iodobenzylamine] | 1.03 |  | 1.03 |  | 1.06 |  | 3.61 |  |
| [123I]c1ccc(N(Cc2ccccc2)Cc2ccccc2)cc1 [I--123-N,N--dibenzyl-p-iodoaniline] | 0.53 | 0.54 | 0.66 | 0.41 | 0.35 | 0.22 | 2.1 | 0.46 |
| CC(C)N(Cc1ccccc1[123I])C(C)C [I--123-N,N--diisopropyl-o-iodobenzylamine] | 5.73 | 1.31 | 0.25 | 0.35 | 1.4 | 0.46 | 2.12 | 0.46 |
| Cc1cccc(C)c1NC(=O)CNCCc1ccccc1[123I] [I--123-N--(2,6-dimethylphenylcarbamoyl)methyl-o-iodo-β-phenethylamine] | 1.33 | 0.31 | 0.55 | 0.26 | 0.73 | 0.08 | 0.74 | 0.21 |
| [123I]c1ccccc1NCc1ccccc1 [I--123-N--benzyl-o-iodoaniline] | 2.23 | 0.80 | 0.3 | 0.36 | 0.67 | 0.29 | 0.34 | 1.25 |
| [123I]c1ccc(NCc2ccccc2)cc1 [I--123-N--benzyl-p-iodoaniline] | 1.57 | 0.51 | 1 | 0.86 | 1.57 | 0.44 | 1.28 | 0.59 |
| CCNCc1ccccc1[123I] [I--123-N--ethyl-o-iodobenzylamine] | 4.22 | 1.31 | 0.25 | 0.34 | 1.06 | 0.44 | 0.79 | 0.44 |
| CC(C)NCc1cccc([123I])c1 [I--123-N--isopropyl-m-iodobenzylamine] | 7.35 | 4.16 | 0.22 | 0.21 | 1.61 | 0.85 | 0.99 | 0.46 |
| CC(C)NCCc1ccccc1[123I] [I--123-N--isopropyl-o-iodo-β-phenethylamine] | 8.58 | 5.83 | 0.12 | 0.12 | 1.03 | 0.67 | 0.88 | 0.27 |
| CC(C)Nc1ccccc1[123I] [I--123-N--isopropyl-o-iodoaniline] | 1.13 | 0.26 | 0.78 | 0.5 | 0.88 | 0.13 | 0.75 | 0.29 |
| CC(C)NCc1ccccc1[123I] [I--123-N--isopropyl-o-iodobenzylamine, I-123-N-isopropyl-o-iodobenzylamine] | 7.63 | 1.04 | 0.16 | 0.62 | 1.21 | 0.64 | 0.72 | 0.47 |
| CC(C)Nc1ccc([123I])cc1 [I--123-N--isopropyl-p-iodoaniline] | 2.55 | 0.33 | 0.48 | 0.79 | 1.23 | 0.26 | 1.01 | 0.61 |
| CNCCc1ccccc1[123I] [I--123-N--methyl-o-iodo-β-phenethylamine] | 0.49 |  | 1.16 |  | 0.57 |  | 1.07 |  |
| [123I]c1ccccc1CCN1CCCCC1 [I--123-N--o-iodo-β-phenethylpiperidine] | 2.35 |  | 0.46 |  | 1.08 |  | 1.68 |  |
| CC1CCC(C)N1Cc1ccccc1[123I] (stereo not shown) [I--123-N--o-iodobenzyl-2,5-dimethylpyrrolidine] | 3.17 | 1.52 | 0.37 | 0.15 | 1.16 | 0.22 | 1.03 | 0.46 |
